# Measurements taken from patent US4002660A, “S-(4-Chlorophenyl)-3-aryl-3-hydroxypropanethioates” (Morton-Norwich Products, Inc., priority 1976, dated 1977).
# Legend:
# Experiment in all cases: antibacterial potency, serial dilution technique (MIC)
# Format in all cases: cell-based
# S. aureus = conditions: Staphylococcus aureus, read-out: Minimum Inhibitory Concentration
# Co. liquefaciens = conditions: read-out: Minimum Inhibitory Concentration
# He. Vaginalis = conditions: Gardnerella vaginalis, read-out: Minimum Inhibitory Concentration
# St. agalactiae = conditions: Streptococcus agalactiae, read-out: Minimum Inhibitory Concentration
# P. multocida = conditions: Pasteurella multocida, read-out: Minimum Inhibitory Concentration
Structure (SMILES),MIC (S. aureus) [µg/mL],MIC (Co. liquefaciens) [µg/mL],MIC (He. Vaginalis) [µg/mL],MIC (St. agalactiae) [µg/mL],MIC (P. multocida) [µg/mL]
"Cc1ccc(C(O)CC(=O)Sc2ccc(Cl)cc2)cc1 (stereo not drawn) [II, S-(4-Chlorophenyl) 3-Hydroxy-3-(4-methylphenyl)propanethioate]",12.5,12.5,3.1,3.13,3.13
"Cc1ccc(C(O)CC(=O)Sc2ccc(Cl)cc2)cc1Cl (stereo not drawn) [VII, S-(4-Chlorophenyl) 3-(3-Chloro-4-methylphenyl)-3-hydroxypropanethioate]",12.5,12.5,25,12.5,25
"O=C(CC(O)c1ccccc1)Sc1ccc(Cl)cc1 (stereo not drawn) [I, S-(4-Chlorophenyl)-3-Hydroxy-3-phenylpropanethioate]",6.25,6.25,12.5,3.13,6.25
"O=C(CC(O)c1ccc(Cl)cc1)Sc1ccc(Cl)cc1 (stereo not drawn) [IV, S-(4-Chlorophenyl) 3-(4-Chlorophenyl)-3-hydroxypropanethioate]",12.5,6.25,3.1,6.25,6.25
"CCc1ccc(C(O)CC(=O)Sc2ccc(Cl)cc2)cc1 (stereo not drawn) [III, S-(4-Chlorophenyl) 3-(4-Ethylphenyl)-3-hydroxypropanethioate]",6.25,6.25,6.25,3.13,6.25
"O=C(CC(O)c1ccc(Cl)cc1Cl)Sc1ccc(Cl)cc1 (stereo not drawn) [V, S-(4-Chlorophenyl) 3-(2,4-Dichlorophenyl)-3-hydroxypropanethioate]",6.25,3.1,12.5,12.5,25
"O=C(CC(O)c1ccc(Cl)c(Cl)c1)Sc1ccc(Cl)cc1 (stereo not drawn) [VI, S-(4-Chlorophenyl) 3-(3,4-Dichlorophenyl)-3-hydroxypropanethioate]",25,12.5,25,12.5,25
